{"source": "paper PMC10924921", "about": "“Mi-2β promotes immune evasion in melanoma by activating EZH2 methylation” (Nature Communications, 2024)", "key": {"[1]": {"system": "secreted Cxcl9 and Cxcl10, B16F10 cells", "experiment": "ELISA of secreted Cxcl9 and Cxcl10 in stimulated cells", "type": "cell-based, mouse", "conditions": "MS177 (10 μM), GSK126 (2μM) or Z36-MP5 (10 μM)", "protocol": "B16F10 cells (1 × 10^6) with or without Mi-2β knockdown were seeded in 6-well plates in complete growth medium. Cell medium was changed to serum-free medium, before treatment with IFN-γ at indicated concentration for 24 h. The secreted chemokines were measured by mouse Cxcl9 ELISA kit (ab203364) and mouse Cxcl10 ELISA Kit (ab214563), according to the manufacturer’s protocols. Isolated graft tumors were prepared and minced with blades, then tumor tissues were cultured in PBS (250 mg/500 µl) for 4 h at 37 °C. The secreted amount of the chemokines in the culture were measured by mouse Cxcl9 ELISA kit (ab203364) and mouse Cxcl10 ELISA Kit (ab214563), according to the manufacturer’s protocols.\nSupplementary Figure 10. Comparison of tumor growth inhibition effects between Z36-MP5 and EZH2 inhibitors. a Mice (n=8) bearing B16F10 cells were treated with control IgG or anti-PD-1 antibody in combination with Z36-MP5 or GSK126, as indicated. A mouse survival curve is shown, with log-rank test for mouse survival P value. b,c The epigenetic modifications of H3 (H3K27ac, H3K27me1 and H3K27me3) were measured in B16F10 cells stimulated with GSK126 or Z36-MP5 as indicated (n = 3, independent experiments). d The amount of secreted Cxcl9 and Cxcl10 was measured by ELISA in […]\nrepresent mean ± SD. The unpaired, two tailed t-test. Source data are provided as a Source Data file. […]"}, "[2]": {"system": "Pmel-1 T cells co cultured with tumor cells", "experiment": "Pmel-1 T-cell killing of tumor cells", "type": "cell-based, mouse", "protocol": "To test whether Z36-MP5 affects cell proliferation, cells were seeded into 96-well plates at a density of 1 × 10^3 cells/100 μl per well. CCK-8 was used to detect changes in proliferation ability after 3 days of treatment with Z36-MP5 (25 μM). To test whether Mi-2β expression in T cells or treatment of T cells with Z36-MP5 affects the ability of T cells to kill tumor cells, Mi-2β in Pmel-1 T cells was manipulated or Pmel-1 cells were exposed to Z36-MP5 (25 μM) for 24 hrs. The number of cells was quantified. One thousand Pmel-1 T cells were then co cultured with 1000 tumor cells for 24 hrs, and the number of tumor cells was counted.\n(§1) Supplementary Figure 8. In vitro assay for Mi-2β inhibitors. a The body weight changes of C57BL/6J mice treated with Z36-MP5 (30 mg/kg/day) for 2 weeks. Data are mean ± SEM (n=5). b H&E staining of tissues in C57BL/6J mice treated with or without Z36 -MP5 (30 mg/kg/day) for 2 weeks. […]\n(§2) The growth of tumor grafts was measured. n = 5. g Mice bearing B16F10 cell s were treated with MS177 (100 mg/kg, 5 days) and then Z36 -MP5 (30 mg/kg/day) or vehicles, accompanied with anti -PD-1 antibody […]"}, "[3]": {"experiment": "Tolerability: mouse weight and organ histology", "type": "in vivo", "conditions": "30 mg/kg/day for 2 weeks", "protocol": "Z36-MP5 was chosen for further validation and experimental therapeutics in vivo. […] To investigate its cellular inhibitory activity, B16F10 cells were treated with Z36-MP5 at concentrations ranging from 5 to 100 µM, and the activation of Mi-2β target genes measured by RT-qPCR. […] In addition, the pharmacokinetic properties of Z36-MP5 in Sprague-Dawley rats with administration of intraperitoneal injection dose of 1.0 mg/kg. […] To exclude any effects on the host cells, we implanted Mi-2β-null melanoma cells into C57BL6 mice and then treated the mice with Z36-MP5 accompanied by anti-PD-1 therapy.\nas §1, §2"}, "[4]": {"experiment": "Estimated blood concentration in mice", "type": "in vivo", "conditions": "intraperitoneal 30 mg per kg, extrapolated from rat", "from_the_text": "FLT3 kinase inhibitor for acute myeloid leukemia with FLT3 mutations. J Med Chem, 61, 3855-3869 (2018); Lexian Tong et al., Identification of 2-aminopyrimidine derivatives as FLT3 kinase inhibitors with high selectivity over c-KIT. J Med Chem, 65, 3229-3248 (2022)). In these cases, the cellular form of the FLT3-WT or FLT3-ITD mutant was preferentially bound. Another example is paclitaxel, a microtubule-stabilizing agent that is widely used in cancer chemotherapy. Biochemical competitive […]\n(Shubhada Sharma, et al., Dissecting paclitaxel–microtubule association: quantitative assessment of the 2’-OH group. Biochemistry, 52, 2328-2336 (2013)). Paclitaxel sensitizes BG-1 ovarian cancer cells to radiation at a dose that was not cytotoxic and […]\nsensitizer: a flow cytometric study. Gynecol Oncol, 50, 89-93 (1993)).\nLike the Mi-2β silencing by shMi-2β (Supplementary Fig. 3C), we observed substantial increases in expressions of Mi-2β target genes, Cxcl9 and Cxcl10, to similar levels after treatment of B16F10 cells with Z36-MP5 at concentrations 5 μM to 100 μM (Fig. 5F).\nMP5 treatment would be sufficient for inhibiting Mi-2β in cells. Moreover, we observed a maintenance of blood concentration of 4 μM to 10 μM Z36-MP5 in rat for around 1 hour after the intraperitoneal injection at a dose of Z36-MP5 as low as 1 mg per kg […]"}}, "data": [{"molecule": "Cn1c(=O)[nH]c2ccc(-c3cccc(C(=O)NC4CCn5ccnc5C4)c3)cc21", "note": "(stereo not shown) [Z36-MP5]", "values": [{"measurement": "induction of ISGs compared with GSK126 or MS177", "setting": "[1]", "value": "more efficiently induced"}, {"measurement": "killing potential of T cells", "setting": "[2]", "value": "not significantly inhibited"}, {"measurement": "tolerability (mouse weight, organ tissue histological staining)", "setting": "[3]", "value": "tolerated without significant toxicity"}, {"measurement": "estimated highest blood concentration in mice", "setting": "[4]", "value": "around 0.97 mM"}]}]}
